What was measured:
Format in all cases: in vivo
[1] = tested on: 5-HT; test: KONZETT DATA, 5-HT; details: spasmogen 5-HT
[2] = tested on: Hist; test: KONZETT DATA, Hist; details: spasmogen Hist
[3] = tested on: Ach; test: KONZETT DATA, Ach; details: spasmogen Ach

CCCCCC(C)(O)/C=C/C1C(O)CC(=O)C1C/C=C\CCCCO (racemic) [dl-1,11,15-trihydroxymethyl-9-oxo-15-methyl-5-cis-13-trans prostadiene]
5-HT (ED50 g/kg) [1]: 0.0083 g/kg
Hist (ED50 g/kg) [2]: 0.00075 g/kg
Ach (ED50 g/kg) [3]: 0.0043 g/kg
